Laboratory results: patent US4005213A, “2,5-Substituted-1,3,4-thiadiazoles as fungicides” (Schering Aktiengesellschaft, priority 1968, dated 1977)

Key:
Pythium ultimum [1] = assay: Limit concentration of soil-fungicidal effectiveness, Pythium ultimum infested soil, peas (Example 1); type: in vivo; conditions: Globisporangium ultimum, 20 to 23 days, 22°-25° C., germination at least 90% vs steamed soil
Description: Limit concentrations of the soil-fungicidal effectiveness at homogeneous mixture of the products with the infested soil. Basic condition in the evaluation are a sound root formation without fungus necroses and germination of the seed of at least 90% compared with the result obtained in steamed soil. Per concentration there were seeded 25 grains of peas of the variety "Miracle of Kelvedon" (marrow pea) without a waiting period. the cultivation time in the tests was 20 to 23 days at a temperature of 22°-25° C. Four commercial products were included in the test series.
Pythium ultimum: Steamed compost soil was inoculated with mycelium of Pythium ultimum

Pythium ultimum [2] = assay: Pea test in soil inoculated with Pythium ultimum (Example 2); type: in vivo; parameters: key to Root evaluation (1-4): 4 = white roots, no necroses … 1 = severe necroses, roots rotted; conditions: for Root evaluation (1-4): 3 weeks; for Number of sound peas after 3 wks.: 25 grains seeded
Description: Steamed compost soil was inoculated with mycelium of Pythium ultimum. […] The following table lists the number of germinated sound peas, the weight of the fresh plant, and a root evaluation after a cultivation period of 3 weeks at 22°-25° C.
4 = white roots, without fungus necroses
3 = white roots, slight fungus necroses
2 = brown roots, more intense fungus necroses
1 = severe fungus necroses, roots rotted

Rhizoctonia solani [3] = assay: Pea test in soil inoculated with Rhizoctonia solani (Example 3); type: in vivo; conditions: for Root evaluation (1-4): 3 weeks; for Number of sound peas after 3 wks.: 25 grains seeded
Source text: Steamed compost soil was inoculated with mycelium of Rhizoctonia solani. After homogeneous mixture of the products with the infested soil, the products were present in the form of 20% powder preparations, the seeding of 25 grains of marrow peas of the variety Miracle of Kelvedon per concentration was effected without waiting period in clay dishes holding 1 liter of soil. The table lists the number of germinated sound peas, the weight of the fresh plant, and a root evaluation after a cultivation period of 3 weeks at 22°-25° C.

Aspergillus niger = assay: Agar test, Aspergillus niger (Example 7); type: cell-based; conditions: 10 ppm in malt extract agar, 5 days at 22° C.; control 100
Description: (§1) The fungicidal action of the agents according to the invention was tested in artificial nutrient media against plant-pathogenic fungi in Petri dishes (agar test). The procedure was to sterilize the medium consisting of 2% malt extract and 1.5% agar-agar powder. Before the solidification of the medium, the active substances were added to it, mixing thoroughly, so that the medium received 10 parts of active substance per million (ppm). After the solidification of the medium, the latter was inoculated with a platinum dropper which contained 100 spores each of the fungi to be tested, and after 5 days at 22° C., an evaluation was made by measuring the diameter of the colonies in mm.

Stemphylium ilicis = assay: Agar test, Stemphylium ilicis (Example 7); type: cell-based; conditions: 10 ppm in malt extract agar, 5 days at 22° C.; control 100
Description: as §1

Pythium ultimum [4] = assay: Fungicidal effect in the vapor phase, Pythium ultimum (Example 11); type: cell-based; conditions: even at 1 mg active ingredient per liter; 3 days, 22° C.; 10% powder
Description: (§2) Nutrient medium inoculated with nycelium of Pythium ultimum or Rhizoctonia solani in open Petri dishes was placed in glass vessels 12 cm tall. First the quantity of product as a 10% powder preparation had been placed on the bottom of the glasses. After a reaction time of 3 days (Pythium) and 5 days (Rhizoctonia) at a temperature of 22° C. in the covered glass vessel, the mycelium growth was evaluated.

Rhizoctonia solani [5] = assay: Fungicidal effect in the vapor phase, Rhizoctonia solani (Example 11); type: cell-based; conditions: even at 1 mg active ingredient per liter; 5 days, 22° C.; 10% powder
Description: as §2

Meloidogyne incognita = assay: Nematocidal action against root gall nematodes, cucumber (Example 8); type: in vivo; conditions: reduction of attack, 30 days
Description: The products as 20% powder preparations were homogeneously admixed with a compost soil heavily infested by root gall nematodes. Without a waiting period, 20 cucumber seeds per concentration were seeded. After a cultivation time of 30 days at a temperature of 23°-25° C., the nematocidal action was evaluated by counting the root galls formed in the waterbath. The following table states the reduction of attack in percent. In the control, an average of 90 root galls per seedling had formed.

[6] = test system: Fusarium oxysporum f. callistephi; assay: Soil inoculated with Fusarium oxysporum f. callistephi, Callistephus chinensis host plants (Example 5); type: in vivo; conditions: four seedlings per concentration
Source text: Steamed compost soil was inoculated with a spore suspension of Fusarium oxysporum f. callistephi. After homogeneous mixture of the products with the infested soil, the products were present as 20% powder preparations, and after a waiting period of 8 days, there were set out per concentration four seedlings of Callistephus chinensis, master aster "Sun Ray" as host plants.

Damping-off Fungi = assay: Cotton seed disinfection in normal compost soil (Example 6); type: in vivo; conditions: 100 mg active ingr. per kg of seed, 15 days, 22°-25° C.
Description: Cotton seeds disinfected with 10% formulations were seeded in normal compost soil (Damping-off Fungi), 25 grains per concentration. After a cultivation time of 15 days at 22°-25° C., the number of germinated sound cotton seedlings and their weight as fresh plants were determined.

[7] = 10 mg active ingr. per liter of soil
[8] = 20 mg active ingr. per liter of soil
[9] = 30 mg active ingr. per liter of soil
[10] = 40 mg active substance per liter of soil
[11] = 60 mg active substance per liter of soil
[12] = 200 mg active ingr. per liter of soil
[13] = 50 mg active ingr. per liter of soil
[14] = 100 mg active ingr. per liter of soil

Compound: C[S+]([O-])c1nnc(C(Cl)(Cl)Cl)s1 (centres unmarked) [Compound 8, 2-trichloromethyl-5-methylsulfinyl-1,3,4-thiadiazole]
- minimal effective concentration (Pythium ultimum [1]): 20 µg/mL
- Root evaluation (1-4) (Pythium ultimum [2]; [7]): 1
- Root evaluation (1-4) (Pythium ultimum [2]; [8]): 4
- Root evaluation (1-4) (Pythium ultimum [2]; [9]): 4
- Root evaluation (1-4) (Rhizoctonia solani [3]; [7]): 4
- Root evaluation (1-4) (Rhizoctonia solani [3]; [8]): 4
- Root evaluation (1-4) (Rhizoctonia solani [3]; [9]): 4
- diameter of the colonies, Aspergillus niger (Aspergillus niger): 0 mm
- diameter of the colonies, Stemphylium ilicis (Stemphylium ilicis): 0 mm

Compound: C[S+]([O-])c1nnc(C(F)(F)F)s1 (centres unmarked) [Compound 35, 2-trifluoromethyl-5-methylsulfinyl-1,3,4-thiadiazole]
- minimal effective concentration (Pythium ultimum [1]): 10 µg/mL
- mycelium growth, Pythium ultimum, vapor phase (Pythium ultimum [4]): no mycelium growth
- mycelium growth, Rhizoctonia solani, vapor phase (Rhizoctonia solani [5]): no mycelium growth

Compound: CC[S+]([O-])c1nnc(C(Cl)(Cl)Cl)s1 (centres unmarked) [Compound 9, 2-trichloromethyl-5-ethylsulfinyl-1,3,4-thiadiazole]
- minimal effective concentration (Pythium ultimum [1]): 200 µg/mL
- Root evaluation (1-4) (Rhizoctonia solani [3]; [7]): 4
- Root evaluation (1-4) (Rhizoctonia solani [3]; [8]): 4
- Root evaluation (1-4) (Rhizoctonia solani [3]; [9]): 4
- diameter of the colonies, Aspergillus niger (Aspergillus niger): 0 mm
- diameter of the colonies, Stemphylium ilicis (Stemphylium ilicis): 0 mm

Compound: CC[S+]([O-])c1nnc(C(Cl)Cl)s1 (centres unmarked) [Compound 4, 2-dichloromethyl-5-ethylsulfinyl 1,3,4-thiadiazole]
- minimal effective concentration (Pythium ultimum [1]): 100 µg/mL
- Nematocidal action in % (Meloidogyne incognita) (Meloidogyne incognita; [10]): 96%
- Nematocidal action in % (Meloidogyne incognita) (Meloidogyne incognita; [11]): 99%

Compound: O=C1C2CC=CCC2C(=O)N1SC(Cl)(Cl)Cl (centres unmarked) [N-(trichloromethylthio)-cyclohex-4-ene-1,2-dicarboximide]
- Root evaluation (1-4) (Pythium ultimum [2]; [12]): 1
- Number of sound peas after 3 wks. (Pythium ultimum [2]; [12]): 13
- No. of attacked plants after 3 weeks [6, 13]: 4
- No. of attacked plants after 3 weeks [6, 14]: 4
- No. of attacked plants after 3 weeks [6, 12]: 4

Compound: CCCS(=O)(=O)c1nnc(C(Cl)(Cl)Cl)s1 [Compound 23, 2-trichloromethyl-5-propylsulfonyl-1,3,4-thiadiazole]
- minimal effective concentration (Pythium ultimum [1]): 150 µg/mL
- Root evaluation (1-4) (Rhizoctonia solani [3]; [7]): 1
- Root evaluation (1-4) (Rhizoctonia solani [3]; [8]): 3
- Root evaluation (1-4) (Rhizoctonia solani [3]; [9]): 4
- diameter of the colonies, Aspergillus niger (Aspergillus niger): 0 mm
- diameter of the colonies, Stemphylium ilicis (Stemphylium ilicis): 0 mm

Compound: C[S+]([O-])c1nnc(C(Cl)Cl)s1 (centres unmarked) [Compound 3, 2-dichloromethyl-5-methylsulfinyl-1,3,4-thiadiazole]
- minimal effective concentration (Pythium ultimum [1]): 10 µg/mL
- Root evaluation (1-4) (Pythium ultimum [2]; [7]): 4
- Root evaluation (1-4) (Pythium ultimum [2]; [8]): 4
- Root evaluation (1-4) (Pythium ultimum [2]; [9]): 4
- Number of sound peas after 3 wks. (Rhizoctonia solani [3]; [7]): 0
- Root evaluation (1-4) (Rhizoctonia solani [3]; [8]): 1
- Root evaluation (1-4) (Rhizoctonia solani [3]; [9]): 4
- Sound plants in % (Damping-off Fungi): 100%
- diameter of the colonies, Aspergillus niger (Aspergillus niger): 50 mm
- diameter of the colonies, Stemphylium ilicis (Stemphylium ilicis): 0 mm
- Nematocidal action in % (Meloidogyne incognita) (Meloidogyne incognita; [10]): 100%
- Nematocidal action in % (Meloidogyne incognita) (Meloidogyne incognita; [11]): 100%

Compound: COc1cc(Cl)c(OC)cc1Cl [1,4-dichloro-2,5-dimethoxybenzene, reference compound]
- Number of sound peas after 3 wks. (Pythium ultimum [2]; [12]): 2
- Number of sound peas after 3 wks. (Rhizoctonia solani [3]; [7]): 0
- Number of sound peas after 3 wks. (Rhizoctonia solani [3]; [8]): 0
- Number of sound peas after 3 wks. (Rhizoctonia solani [3]; [9]): 21
- Number of sound peas after 3 wks. (Rhizoctonia solani [3]; 40 mg active ingr. per liter of soil): 22
- No. of attacked plants after 3 weeks [6, 13]: 4
- No. of attacked plants after 3 weeks [6, 14]: 4
- No. of attacked plants after 3 weeks [6, 12]: 4

Compound: CC[S+]([O-])c1nnc(C(F)(F)F)s1 (centres unmarked) [Compound 36, 2-trifluoromethyl-5-ethylsulfinyl-1,3,4-thiadiazole]
- minimal effective concentration (Pythium ultimum [1]): 10 µg/mL
- mycelium growth, Pythium ultimum, vapor phase (Pythium ultimum [4]): no mycelium growth
- mycelium growth, Rhizoctonia solani, vapor phase (Rhizoctonia solani [5]): no mycelium growth

Compound: CCCS(=O)(=O)c1nnc(C(Cl)Cl)s1 [Compound 19, 2-dichloromethyl-5-propylsulfonyl-1,3,4-thiadiazole]
- minimal effective concentration (Pythium ultimum [1]): 100 µg/mL
- diameter of the colonies, Aspergillus niger (Aspergillus niger): 0 mm
- diameter of the colonies, Stemphylium ilicis (Stemphylium ilicis): 0 mm
- Nematocidal action in % (Meloidogyne incognita) (Meloidogyne incognita; [10]): 72%
- Nematocidal action in % (Meloidogyne incognita) (Meloidogyne incognita; [11]): 82%

Compound: CCS(=O)(=O)c1nnc(C(F)(F)F)s1 [Compound 40, 2-trifluoromethyl-5-ethylsulfonyl-1,3,4-thiadiazole]
- minimal effective concentration (Pythium ultimum [1]): 10 µg/mL
- mycelium growth, Pythium ultimum, vapor phase (Pythium ultimum [4]): no mycelium growth
- mycelium growth, Rhizoctonia solani, vapor phase (Rhizoctonia solani [5]): no mycelium growth

Compound: CCC[S+]([O-])c1nnc(C(Cl)Cl)s1 (centres unmarked) [Compound 5, 2-dichloromethyl-5-propylsulfinyl-1,3,4-thiadiazole]
- minimal effective concentration (Pythium ultimum [1]): 100 µg/mL
- Nematocidal action in % (Meloidogyne incognita) (Meloidogyne incognita; [10]): 90%
- Nematocidal action in % (Meloidogyne incognita) (Meloidogyne incognita; [11]): 98%

Compound: CS(=O)(=O)c1nnc(C(F)(F)F)s1 [Compound 1, 2-trifluoromethyl-5-methylsulfonyl-1,3,4-thiadiazole]
- minimal effective concentration (Pythium ultimum [1]): 10 µg/mL
- Root evaluation (1-4) (Pythium ultimum [2]; [7]): 4
- Root evaluation (1-4) (Pythium ultimum [2]; [8]): 4
- Number of sound peas after 3 wks. (Pythium ultimum [2]; [8]): 22
- Root evaluation (1-4) (Pythium ultimum [2]; [9]): 4
- diameter of the colonies, Aspergillus niger (Aspergillus niger): 0 mm
- diameter of the colonies, Stemphylium ilicis (Stemphylium ilicis): 0 mm
- mycelium growth, Pythium ultimum, vapor phase (Pythium ultimum [4]): no mycelium growth
- mycelium growth, Rhizoctonia solani, vapor phase (Rhizoctonia solani [5]): no mycelium growth

Compound: CCS(=O)(=O)c1nnc(C(Cl)Cl)s1 [Compound 18, 2-dichloromethyl-5-ethylsulfonyl-1,3,4-thiadiazole]
- minimal effective concentration (Pythium ultimum [1]): > 200 µg/mL
- diameter of the colonies, Aspergillus niger (Aspergillus niger): 0 mm
- diameter of the colonies, Stemphylium ilicis (Stemphylium ilicis): 0 mm
- Nematocidal action in % (Meloidogyne incognita) (Meloidogyne incognita; [10]): 61%
- Nematocidal action in % (Meloidogyne incognita) (Meloidogyne incognita; [11]): 90%

Compound: CS(=O)(=O)c1nnc(C(Br)Br)s1 [Compound 32, 2-dibromomethyl-5-methylsulfonyl-1,3,4-thiadiazole]
- minimal effective concentration (Pythium ultimum [1]): 20 µg/mL
- diameter of the colonies, Aspergillus niger (Aspergillus niger): 0 mm
- diameter of the colonies, Stemphylium ilicis (Stemphylium ilicis): 0 mm
